Data taken from patent US20210393565A1, “PREPARATION FOR USE TO INCREASE THE FORMATION OF ONE OR MORE SPECIALIZED PRO-RESOLVING LIPID MEDIATORS (SPM)” (Evonik Operations GmbH, priority 2018, published 2021).

What was measured:
Type in all cases: cell-based
[1] = test system: Bacillus megaterium DSM 32963 cells; assay: Lipidometabolomics (UPLC-MS/MS) of culture supernatants with AvailOm, dissolved or as dispersion; conditions: for Extracellular concentration of PUFA oxygenation product: − bile acids, net after subtraction of cell-free control
Description: (§1) Bacterial supernatant samples were subjected to lipid extraction using RP-phase solid phase extraction and subsequently analyzed by ultra performance liquid chromatography ESI tandem mass spectrometry (UPLC-MS/MS) according to a published procedure. Under these conditions approximately 40 different LM, including 5-hydroxy-eicosapentaenoic acid 5-HEPE, 8-HEPE, 11-HEPE, 12-HEPE, 15-HEPE, 18-HEPE, 5-hydroxy-eicosatetraenoic acid (5-HETE), 8-HETE, 11-HETE, 12-HETE, 15-HETE, 4-hydroxy-DHA (4-HDHA), 7-HDHA, 13-HDHA, 14-HDHA, 17-HDHA, lipoxin A4 (LXA4), LXB4, resolvin E1 (RvE1), RvE3, resolvin D1-5 (RvD1-5), AT-RvD1, RvD2, protectin D1 (PD1), AT-PD1, maresin 1(MaR1), MaR2, plus 4 fatty acid substrates can be detected with a lower limit of detection of 1 pg.
To investigate if Bacillus megaterium is capable of producing other PUFA oxygenation products in addition to 18-HEPE, a lipidometabolomics screening of supernatants from Bacillus megaterium strain 32963 cultured as in example 4 with AvailOm® was performed, either dissolved or in a dispersion formulation, with or without bile acids. Cell-free preparations of AvailOm® formulations were treated and analyzed in parallel and served as controls for non-enzymatic, spontaneous formation of oxygenation products. Values given in table 6 display net concentrations of products formed, i.e. after subtraction of control values. […] Concentrations of several SPM exceed by far the concentrations of SPM found in human plasma samples, which are typically in a range of ˜20-100 pg/ml. For comparison, human breast milk contains ˜6.000 pg/ml RvE1 and ˜10.000 pg/ml RvD1 [42].

[2] = test system: Bacillus megaterium DSM 33296 cells; assay: Lipidometabolomics of culture supernatants with AvailOm dispersion formulation; conditions: Bacillus megaterium DSM 33296, AvailOm dispersion formulation; net concentration
Description: as §1
(§2) 47 additional Bacillus megaterium strains sourced from various habitats were screened for their SPM production capacity to determine if this is a general phenomenon of the species Bacillus megaterium and to detect strain-specific differences in types and quantities of SPM being produced. Cells were cultured as detailed in example 4, with dispersion formulation of AvailOm® serving as omega-3 fatty acid source. Cell-free preparations of AvailOm® were treated and analyzed in parallel and served as controls for non-enzymatic, spontaneous formation of oxygenation products. It was observed that all tested strains produced measurable (>1 pg/ml) amounts of various SPM and precursors thereof, that these amounts were hugely different between the strains (up to 2.000 fold), and that concentrations of RvE3 were particularly high (up to 1.3 μg/ml) in most of the strains.
(§3) Values given in table 7 display net concentrations of PUFA oxygenation products formed by two of the top performing strains, Bacillus megaterium DSM 33296 and Bacillus megaterium DSM 33299.

[3] = test system: Bacillus megaterium DSM 33299 cells; assay: as above; conditions: Bacillus megaterium DSM 33299, AvailOm dispersion formulation; net concentration
Description: as §1, §2, §3

Molecule	abundance with dispersion formulation and/or bile acids compared to AvailOm without both (in words) [1]	Extracellular concentration of PUFA oxygenation product ([1]; AvailOm) [pg/mL]	Extracellular concentration of PUFA oxygenation product [2] [pg/mL]	Extracellular concentration of PUFA oxygenation product [3] [pg/mL]	Extracellular concentration of PUFA oxygenation product ([1]; AvailOm dispersion) [pg/mL]
5-hydroxy-eicosatetraenoic acid [5-HETE]	lower	13	15434	9356	
9-hydroxyoctadecadienoic acid [9-HODE]	lower	43			
11-hydroxy-eicosapentaenoic acid [11-HEPE]	lower	4659	124860	63306	
12-hydroxy-eicosapentaenoic acid [12-HEPE]	lower	4413	124701	79699	
CCC=CCC=CCC=CCC=CC=CC(O)CCCC(=O)O (stereo not shown) [5-HEPE, 5-hydroxy-eicosapentaenoic acid]	lower	2253	395188	989691	
CC/C=C\C/C=C\C/C=C\C/C=C\C=C\C(O)C/C=C\CCC(=O)O (stereo not shown) [7-HDHA, 7-hydroxy-DHA]			202129	243080	
CCCCC/C=C\C/C=C\C=C\C(O)C/C=C\CCCC(=O)O (stereo not shown) [8-HETE, 8-hydroxy-eicosatetraenoic acid]	lower		24207	15941	
CC/C=C\CC(O)/C=C/C=C\C/C=C\C/C=C\CCCC(=O)O (stereo not shown) [15-HEPE, 15-hydroxy-eicosapentaenoic acid]	lower	7536	256797	151168	
CCC(O)/C=C/C=C\C/C=C\C/C=C\C/C=C\CCCC(=O)O (stereo not shown) [18-HEPE, 18-hydroxy-eicosapentaenoic acid]	lower	24463	391397	217725	
CC/C=C\C[C@@H](O)\C=C/C=C/C=C/[C@H](O)C/C=C\C/C=C\CCC(=O)O [AT-PD1 1, Aspirin-triggered PD1]		96	4558	10317	247
CC/C=C\C[C@@H](O)/C=C/C=C\C=C\C=C\[C@@H](O)[C@@H](O)C/C=C\CCC(=O)O [AT-RvD1, Aspirin-triggered RvD1]		519	9612	48243	4932
CCCCC/C=C\C[C@@H](O)/C=C/C=C/C=C\[C@@H](O)CCCC(=O)O [LTB4, leukotriene B4]		171	1769	2206	
CCCCC[C@H](O)/C=C/C=C\C=C\C=C\[C@@H](O)[C@@H](O)CCCC(=O)O [LXA4, lipoxin A4]			1157	1430	
CC/C=C\C[C@H](O)/C=C/C=C\C=C\C=C\[C@@H](O)[C@@H](O)CCCC(=O)O [LXA5, lipoxin A5]		7767	4693	128825	41263
CCCCC[C@H](O)[C@H](O)/C=C/C=C/C=C\C=C\[C@@H](O)CCCC(=O)O [LXB4, lipoxin B4]					76301
CC/C=C\C[C@H](O)[C@@H](O)/C=C/C=C/C=C\C=C\[C@@H](O)CCCC(=O)O [LXB5, lipoxin B5]		2376			669042
CC/C=C\C/C=C\C[C@H](O)\C=C/C=C/C=C/[C@H](O)C/C=C\CCC(=O)O [MaR1, maresin 1]		114	1161	1576	145
CC/C=C\C/C=C\C[C@H](O)[C@H](O)/C=C/C=C/C=C\C/C=C\CCC(=O)O [MaR2, maresin 2]		120	1522	1233	197
CC/C=C\C[C@H](O)\C=C/C=C/C=C/[C@H](O)C/C=C\C/C=C\CCC(=O)O [PD1 1, protectin D1]		113	99029	75342	3841
CC/C=C\C[C@H](O)/C=C/C=C\C=C\[C@@H](O)C/C=C\C/C=C\CCC(=O)O [PDX 1]		109	78345	138918	19542
CC/C=C\C[C@H](O)[C@H](O)/C=C/C=C/C=C\C=C\[C@@H](O)C/C=C\CCC(=O)O [RvD2]		87	265	428	99
CC/C=C\C[C@H](O)/C=C/C=C\C[C@@H](O)/C=C/C=C/C=C\[C@@H](O)CCC(=O)O [RvD3]		178	381	941	8409
CC/C=C\C[C@H](O)/C=C\C=C\C/C=C/C=C/C=C/C(O)[C@@H](O)CCC(=O)O (stereo partly shown) [RvD4]		3681	1986	2523	
CC/C=C\C[C@H](O)/C=C/C=C\C/C=C\C=C\[C@@H](O)C/C=C\CCC(=O)O [RvD5]		68	15079	34168	9016
CC[C@@H](O)/C=C/C=C\C[C@@H](O)/C=C/C=C/C=C\[C@@H](O)CCCC(=O)O [RvE1, resolvin E1]		88	5840	28379	57826
CCCCC/C=C\C[C@@H](O)/C=C/C=C/C=C/[C@@H](O)CCCC(=O)O [t-LTB4]		360	1780	4181	667
RvD1		598	3626	4389	1863
